Reference: PubChem BioAssay (NCI)
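Test compounds were applied to cells in 96-well plates for 48 hours at 5 doses. GI50 marks 50% less growth. TGI is the concentration that stops growth completely.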

Key:
Experiment in all cases: inhibition of tumour cell growth, NCI panel, 48 h
MOLT-4 leukemia = system: MOLT-4 leukemia
SK-MEL-2 melanoma = system: SK-MEL-2 melanoma
SF-295 CNS = system: SF-295 CNS
T-47D breast = system: T-47D breast
NCI-H460 lung = system: NCI-H460 lung
EKVX NSCLC = system: EKVX NSCLC
SK-MEL-28 melanoma = system: SK-MEL-28 melanoma
SK-MEL-5 melanoma = system: SK-MEL-5 melanoma
SNB-75 CNS = system: SNB-75 CNS
MDA-MB-435 = system: MDA-MB-435
OVCAR-8 ovarian = system: OVCAR-8 ovarian
OVCAR-5 ovarian = system: OVCAR-5 ovarian
HOP-92 NSCLC = system: HOP-92 NSCLC
DU-145 prostate = system: DU-145 prostate
A498 renal = system: A498 renal
MALME-3M melanoma = system: MALME-3M melanoma
RXF 393 renal = system: RXF 393 renal
HCT-15 colon = system: HCT-15 colon
HOP-62 NSCLC = system: HOP-62 NSCLC
BT-549 breast = system: BT-549 breast
RPMI-8226 leukemia = system: RPMI-8226 leukemia
U251 CNS = system: U251 CNS
HCC-2998 colon = system: HCC-2998 colon
A549 NSCLC = system: A549 NSCLC
SR leukemia = system: SR leukemia
KM12 colon = system: KM12 colon
UACC-62 melanoma = system: UACC-62 melanoma
HCT-116 colon = system: HCT-116 colon
CCRF-CEM leukemia = system: CCRF-CEM leukemia
UO-31 renal = system: UO-31 renal
PC-3 prostate = system: PC-3 prostate
MDA-MB-231 breast = system: MDA-MB-231 breast
CAKI-1 renal = system: CAKI-1 renal
NCI-H23 lung = system: NCI-H23 lung
ACHN renal = system: ACHN renal
NCI-H226 lung = system: NCI-H226 lung
NCI-H522 lung = system: NCI-H522 lung
HL-60(TB) leukemia = system: HL-60(TB) leukemia
MCF7 breast = system: MCF7 breast
M14 melanoma = system: M14 melanoma
UACC-257 melanoma = system: UACC-257 melanoma
HT29 colon = system: HT29 colon
SF-268 CNS = system: SF-268 CNS
COLO 205 colon = system: COLO 205 colon
SN12C renal = system: SN12C renal
SNB-19 CNS = system: SNB-19 CNS
NCI/ADR-RES ovarian = system: NCI/ADR-RES ovarian
SW-620 colon = system: SW-620 colon
TK-10 renal = system: TK-10 renal
786-0 renal = system: 786-0 renal
K-562 leukemia = system: K-562 leukemia
OVCAR-4 ovarian = system: OVCAR-4 ovarian
SF-539 CNS = system: SF-539 CNS
IGROV1 ovarian = system: IGROV1 ovarian
HS 578T breast = system: HS 578T breast
SK-OV-3 ovarian = system: SK-OV-3 ovarian

O=C(Nc1cccc(C(F)(F)F)c1)c1cc(-c2ccc(F)cc2F)ccc1O
GI50 (MOLT-4 leukemia): 2.13 µM | TGI (MOLT-4 leukemia): 5.58 µM | GI50 (SK-MEL-2 melanoma): 1.46 µM | TGI (SK-MEL-2 melanoma): 4.95 µM | GI50 (SF-295 CNS): 1.75 µM | TGI (SF-295 CNS): 3.57 µM | GI50 (T-47D breast): 2.2 µM | TGI (T-47D breast): 8.64 µM | GI50 (NCI-H460 lung): 2.67 µM | TGI (NCI-H460 lung): 13.3 µM | GI50 (EKVX NSCLC): 2.28 µM | TGI (EKVX NSCLC): 8.98 µM | GI50 (SK-MEL-28 melanoma): 2.17 µM | TGI (SK-MEL-28 melanoma): 7.58 µM | GI50 (SK-MEL-5 melanoma): 1.25 µM | TGI (SK-MEL-5 melanoma): 2.86 µM | GI50 (SNB-75 CNS): 1.52 µM | TGI (SNB-75 CNS): 4.25 µM | GI50 (MDA-MB-435): 2.5 µM | TGI (MDA-MB-435): 7.11 µM | GI50 (OVCAR-8 ovarian): 2.92 µM | TGI (OVCAR-8 ovarian): > 100 µM | GI50 (OVCAR-5 ovarian): 3.41 µM | TGI (OVCAR-5 ovarian): 26.4 µM | GI50 (HOP-92 NSCLC): 0.824 µM | TGI (HOP-92 NSCLC): 4.28 µM | GI50 (DU-145 prostate): 3.55 µM | TGI (DU-145 prostate): > 100 µM | GI50 (A498 renal): 0.923 µM | TGI (A498 renal): 3.21 µM | GI50 (MALME-3M melanoma): 1.77 µM | TGI (MALME-3M melanoma): 4.65 µM | GI50 (RXF 393 renal): 2.06 µM | TGI (RXF 393 renal): 6.22 µM | GI50 (HCT-15 colon): 2.21 µM | TGI (HCT-15 colon): 6.99 µM | GI50 (HOP-62 NSCLC): 2.93 µM | TGI (HOP-62 NSCLC): 9.31 µM | GI50 (BT-549 breast): 2.13 µM | TGI (BT-549 breast): 7.24 µM | GI50 (RPMI-8226 leukemia): 1.44 µM | TGI (RPMI-8226 leukemia): 5.28 µM | GI50 (U251 CNS): 2.99 µM | TGI (U251 CNS): 17.5 µM | GI50 (HCC-2998 colon): 3.07 µM | TGI (HCC-2998 colon): 13.2 µM | GI50 (A549 NSCLC): 3.26 µM | TGI (A549 NSCLC): > 100 µM | GI50 (SR leukemia): 2.76 µM | TGI (SR leukemia): 14 µM | GI50 (KM12 colon): 2.44 µM | TGI (KM12 colon): 6.12 µM | GI50 (UACC-62 melanoma): 1.16 µM | TGI (UACC-62 melanoma): 4.22 µM | GI50 (HCT-116 colon): 1.89 µM | TGI (HCT-116 colon): 4.98 µM | GI50 (CCRF-CEM leukemia): 2.97 µM | TGI (CCRF-CEM leukemia): 48.6 µM | GI50 (UO-31 renal): 2.46 µM | TGI (UO-31 renal): 10.6 µM | GI50 (PC-3 prostate): 2.89 µM | TGI (PC-3 prostate): 15.1 µM | GI50 (MDA-MB-231 breast): 2.01 µM | TGI (MDA-MB-231 breast): 5.17 µM | GI50 (CAKI-1 renal): 1.79 µM | TGI (CAKI-1 renal): 5.69 µM | GI50 (NCI-H23 lung): 1.89 µM | TGI (NCI-H23 lung): 5.58 µM | GI50 (ACHN renal): 2.76 µM | TGI (ACHN renal): 8.67 µM | GI50 (NCI-H226 lung): 2.01 µM | TGI (NCI-H226 lung): 5.34 µM | GI50 (NCI-H522 lung): 1.32 µM | TGI (NCI-H522 lung): 9.58 µM | GI50 (HL-60(TB) leukemia): 2.06 µM | TGI (HL-60(TB) leukemia): 4.97 µM | GI50 (MCF7 breast): 2.18 µM | TGI (MCF7 breast): 9.29 µM | GI50 (M14 melanoma): 3.02 µM | TGI (M14 melanoma): 10.5 µM | GI50 (UACC-257 melanoma): 1.5 µM | TGI (UACC-257 melanoma): 6.97 µM | GI50 (HT29 colon): 3.27 µM | TGI (HT29 colon): 16.9 µM | GI50 (SF-268 CNS): 2.67 µM | TGI (SF-268 CNS): 16.7 µM | GI50 (COLO 205 colon): 3.22 µM | TGI (COLO 205 colon): 10.2 µM | GI50 (SN12C renal): 1.99 µM | TGI (SN12C renal): 7.61 µM | GI50 (SNB-19 CNS): 3.08 µM | TGI (SNB-19 CNS): 73.5 µM | GI50 (NCI/ADR-RES ovarian): 2.57 µM | TGI (NCI/ADR-RES ovarian): 8.63 µM | GI50 (SW-620 colon): 3.61 µM | TGI (SW-620 colon): 14.5 µM | GI50 (TK-10 renal): 4.55 µM | TGI (TK-10 renal): 30.5 µM | GI50 (786-0 renal): 3.27 µM | TGI (786-0 renal): 12 µM | GI50 (K-562 leukemia): 2.23 µM | TGI (K-562 leukemia): > 100 µM | GI50 (OVCAR-4 ovarian): 3.11 µM | TGI (OVCAR-4 ovarian): 95.7 µM | GI50 (SF-539 CNS): 3.05 µM | TGI (SF-539 CNS): 11 µM | GI50 (IGROV1 ovarian): 2.82 µM | TGI (IGROV1 ovarian): 17 µM | GI50 (HS 578T breast): 2.47 µM | TGI (HS 578T breast): 9.63 µM | GI50 (SK-OV-3 ovarian): 2.43 µM | TGI (SK-OV-3 ovarian): 8.62 µM
